{"source": "ChEMBL document CHEMBL1145761", "about": "(Bioorg Med Chem Lett, 2003)", "note": "pKi: −log10 of the molar value.", "data": [{"molecular_target": "Neuronal acetylcholine receptor; alpha4/beta2 (Rattus norvegicus, UniProt P09483+P12390)", "sequence (P09483 whole entry)": "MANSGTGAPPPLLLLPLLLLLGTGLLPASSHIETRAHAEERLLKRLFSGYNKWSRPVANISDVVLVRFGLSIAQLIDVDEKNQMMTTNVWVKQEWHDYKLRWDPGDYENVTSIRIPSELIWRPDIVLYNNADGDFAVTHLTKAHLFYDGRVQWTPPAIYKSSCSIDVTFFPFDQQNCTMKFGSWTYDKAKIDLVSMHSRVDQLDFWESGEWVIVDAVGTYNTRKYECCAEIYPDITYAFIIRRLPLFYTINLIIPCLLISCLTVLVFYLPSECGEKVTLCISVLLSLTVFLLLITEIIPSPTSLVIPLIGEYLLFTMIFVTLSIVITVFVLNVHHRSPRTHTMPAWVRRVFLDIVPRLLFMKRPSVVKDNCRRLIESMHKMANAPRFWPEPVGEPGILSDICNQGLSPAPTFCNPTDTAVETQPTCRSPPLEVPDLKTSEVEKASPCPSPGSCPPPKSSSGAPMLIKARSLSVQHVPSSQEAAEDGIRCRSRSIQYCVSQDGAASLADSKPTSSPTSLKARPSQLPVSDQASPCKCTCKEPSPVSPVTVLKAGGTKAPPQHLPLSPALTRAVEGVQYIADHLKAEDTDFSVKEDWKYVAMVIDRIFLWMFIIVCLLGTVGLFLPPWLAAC", "sequence (P12390 whole entry)": "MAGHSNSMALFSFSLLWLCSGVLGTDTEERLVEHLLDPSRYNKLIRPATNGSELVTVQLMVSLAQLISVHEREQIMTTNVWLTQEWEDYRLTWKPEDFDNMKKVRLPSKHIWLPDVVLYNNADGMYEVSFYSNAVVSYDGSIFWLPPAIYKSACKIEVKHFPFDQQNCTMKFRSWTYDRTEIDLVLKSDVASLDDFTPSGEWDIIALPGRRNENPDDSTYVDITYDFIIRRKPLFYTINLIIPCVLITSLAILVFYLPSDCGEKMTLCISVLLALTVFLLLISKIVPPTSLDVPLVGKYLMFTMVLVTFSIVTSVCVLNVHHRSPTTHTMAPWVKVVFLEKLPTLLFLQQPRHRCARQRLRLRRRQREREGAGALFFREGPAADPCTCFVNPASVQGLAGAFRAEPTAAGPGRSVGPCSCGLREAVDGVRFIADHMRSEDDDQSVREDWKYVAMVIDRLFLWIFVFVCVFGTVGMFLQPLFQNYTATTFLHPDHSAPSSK", "assay": "Affinity at alpha4-beta2 nACh receptors in rat brain (minus cerebellum) homogenates.", "type": "tissue-based", "values": [{"compound": "CN1CCCC1c1cnc2ccccc2c1", "note": "(stereo unspecified)", "pKi": 7.96}, {"compound": "CN1CCN=C1Cc1ccc(-c2ccccc2)nc1", "pKi": 5.49}, {"compound": "c1cncc(C2=NCCC2)c1", "note": "[MYOSMINE]", "pKi": 5.48}, {"compound": "COc1ccc(CC2=NCCN2C)cn1", "pKi": 7.34}, {"compound": "CN1CCCC1c1ccc(Cl)nc1", "note": "(stereo unspecified)", "pKi": 9.22}, {"compound": "CN1CCCC1c1ccc(-c2ccccc2)nc1", "note": "(stereo unspecified)", "pKi": 5.03}, {"compound": "CN1CCN=C1Cc1ccc(Br)nc1", "pKi": 8.14}, {"compound": "CN1CCCC1c1ccc(Br)nc1", "note": "(stereo unspecified)", "pKi": 9.30}, {"compound": "CN1CCN=C1Cc1cnc2ccccc2c1", "pKi": 7.42}, {"compound": "c1ccc(CN2CCCC2c2cccnc2)cc1", "note": "(stereo unspecified)", "pKi": 6.44}, {"compound": "CN1CCN=C1Cc1ccc(Cl)nc1", "pKi": 8.48}]}]}
